Values of other authors, collected in patent US9925191B2, “Fumarate compounds, pharmaceutical compositions thereof, and methods of use” (priority 2015, dated 2018).

With `COC(=O)/C=C/C(=O)OC` [DMF, dimethylfumarate] as the molecule, how does the aqueous solubility read?
The aqueous solubility was “poor aqueous solubility”.
